Experimental data published in patent US20110319384A1, “Pharmaceutical Compositions” (priority 2005, published 2011).
Like-named read-outs stand apart in the source and are kept apart here.

Key:
[1] = system: outpatient adults with SRI-resistant OCD
[2] = hypothesis to be tested, compared to paroxetine
[3] = hypothesis to be tested, vs placebo

## OCCOCCN1CCN(C2=Nc3ccccc3Sc3ccccc32)CC1 [quetiapine, 11-[4-[2-(2-hydroxyethoxy)ethyl]-1-piperazinyl]-dibenzo[b,f][1,4]thiazepine]
Patients with GAD; claim to be addressed, primary outcome, vs placebo
  Change from randomization in the Hamilton Anxiety Scale (HAM-A) total score at Day 57: more effective
Patients with GAD; [2]
  Adverse events of nausea or vomiting: lower levels of nausea and
  Incidence of withdrawals due to adverse events: Quetiapine has similar
  Sexual dysfunction: change from randomization in CSFQ total score at Day 57: lower levels of sexual
Patients with GAD; hypothesis to be tested, compared to placebo
  Somnolence: severity of AEs, time of first instance, withdrawals due to AE of somnolence: generally mild, occurs early in
Patients with GAD; hypothesis to be tested, compared to placebo, Day 4
  Change from randomization in HAM-A total score, HAM-A psychic cluster, HAM-A somatic cluster and CGI-S score at Day 4: anti-anxiety effect by Day 4
Patients with GAD; hypothesis to be tested, depressive symptoms in GAD, vs placebo
  Change from randomization in MADRS total score at Day 57: Quetiapine is more effective
Patients with GAD; hypothesis to be tested, discontinuation symptoms
  Adverse events related to discontinuation; change in Discontinuation-Emergent Signs and Symptoms total score at Day 64 and Day 71: Quetiapine does not have
Patients with GAD; hypothesis to be tested, once daily up to 150 mg/day
  Change from normal to Clinically Important in Physical Examinations; Laboratory values; Vital signs; ECGs: 150 mg/day is safe and well
Patients with GAD; hypothesis to be tested, patient satisfaction, vs placebo
  Change from randomization in Q-les-Q Item 15 (Satisfaction with medication) at Day 57: Quetiapine is more effective
Patients with GAD; hypothesis to be tested, quality of life, vs placebo
  Change from randomization in Q-les-Q total score and Q-les-Q Item 16 (Overall life satisfaction) at Day 57: Quetiapine is more effective
Patients with GAD; hypothesis to be tested, response rate vs placebo, Day 4
  HAM-A Response (decrease from randomization total score of ≧50%) at Day 4: Quetiapine has a greater
Patients with GAD; hypothesis to be tested, response rate vs placebo, Day 57
  HAM-A Response (decrease from randomization total score of ≧50%) at Day 57: Quetiapine has a greater
Patients with GAD; hypothesis to be tested, sleep quality, vs placebo
  Change from randomization in PSQI score and MADRS sleep disturbance factor (Item 4) at Day 57: Quetiapine is superior to
Patients with GAD; hypothesis to be tested, versus paroxetine
  Change from randomization in HAM-A total score, CGI Global Improvement, HAM-A psychic and somatic clusters at Day 57: Quetiapine is at least as
Patients with GAD; [3]
  Adverse events of nausea or vomiting: placebo levels of nausea and
  Adverse events related to EPS (including akathisia); change in SAS and BARS scores at Day 57: placebo levels of EPS
  HAM-A Remission (HAM-A total score ≦7) at Day 57: Quetiapine is better than
  Sexual dysfunction: change from randomization in CSFQ total score at Day 57: placebo levels of sexual
Patients with GAD; hypothesis to be tested, vs placebo, across anxiety symptoms
  Change from randomization in CGI-S score, CGI-I (much or very much improved), HAM-A psychic and somatic clusters at Day 57: Quetiapine is more effective
[1]; added to SRI
  mean MADRS score at baseline: about 19
  mean MADRS score at trial end: about 15
  mean Y-BOCS score at baseline, the 5 patients that responded: about 30
[1]; added to SRI, 8 weeks
  mean Y-BOCS score after treatment, the 5 patients that responded: about 17
[1]; added to SRI, final mean dosage about 169 mg/day
  patients who responded to treatment (≧25% decrease in Y-BOCS score at endpoint): Five of the 16
[1]; in vivo
  most common adverse events: Sedation and fatigue
  patients who withdrew because of an adverse event: 1 patient
  severity of adverse events: generally mild
